Reference: patent US20260158017A1, “KIF18A INHIBITOR” (WIGEN BIOMEDICINE TECHNOLOGY (SHANGHAI) CO., LTD., priority 2021, published 2026)

Target: T1, Recombinant human KIF18A (1-467His-tagged) protein (Homo sapiens, UniProt Q8NI77)
T1 construct: Recombinant human KIF18A (1-467His-tagged) protein; His; made in house
Assay: KIF18A enzyme assay (microtubule-stimulated ATPase activity, ADP-Glo)
Type: biochemical
Details: 30 nM KIF18A, 75 μM ATP, 30 μg/mL pig microtubules; read-out: Inhibitory activity against KIF18A IC50
Summary of the method: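 Buffer 15 mM Tris pH 7.5, 10 mM MgCl2, 0.01% Pluronic F-68, 1 μM paclitaxel, 30 μg/mL pig microtubules; reactions at room temperature. IC50 from inhibition relative to DMSO.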

T1 sequence (Q8NI77 1-467): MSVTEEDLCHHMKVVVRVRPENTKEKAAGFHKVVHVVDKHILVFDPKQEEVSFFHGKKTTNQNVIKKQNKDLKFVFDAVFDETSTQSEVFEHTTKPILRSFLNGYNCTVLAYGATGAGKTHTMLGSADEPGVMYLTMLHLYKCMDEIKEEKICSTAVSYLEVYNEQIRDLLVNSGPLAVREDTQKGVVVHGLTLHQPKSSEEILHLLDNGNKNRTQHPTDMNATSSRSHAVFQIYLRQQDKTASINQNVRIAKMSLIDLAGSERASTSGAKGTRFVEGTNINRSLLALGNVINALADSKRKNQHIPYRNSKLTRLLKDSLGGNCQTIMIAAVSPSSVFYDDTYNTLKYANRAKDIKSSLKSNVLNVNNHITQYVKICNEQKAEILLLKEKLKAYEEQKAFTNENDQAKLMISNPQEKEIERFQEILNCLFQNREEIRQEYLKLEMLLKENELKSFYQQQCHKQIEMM
T1 sequence (P02550 whole entry partner): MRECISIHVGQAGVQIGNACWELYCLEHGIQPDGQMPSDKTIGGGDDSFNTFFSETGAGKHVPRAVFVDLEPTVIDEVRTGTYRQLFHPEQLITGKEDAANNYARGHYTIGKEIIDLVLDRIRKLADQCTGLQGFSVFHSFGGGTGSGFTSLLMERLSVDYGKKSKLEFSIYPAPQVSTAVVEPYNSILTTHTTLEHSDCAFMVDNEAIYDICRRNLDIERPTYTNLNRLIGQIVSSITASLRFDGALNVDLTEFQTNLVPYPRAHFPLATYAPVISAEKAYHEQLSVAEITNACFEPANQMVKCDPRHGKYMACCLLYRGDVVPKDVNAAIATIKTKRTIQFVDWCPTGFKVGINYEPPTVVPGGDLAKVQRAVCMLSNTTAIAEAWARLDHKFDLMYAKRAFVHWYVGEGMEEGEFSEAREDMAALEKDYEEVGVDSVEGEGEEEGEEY
T1 sequence (P02554 whole entry partner): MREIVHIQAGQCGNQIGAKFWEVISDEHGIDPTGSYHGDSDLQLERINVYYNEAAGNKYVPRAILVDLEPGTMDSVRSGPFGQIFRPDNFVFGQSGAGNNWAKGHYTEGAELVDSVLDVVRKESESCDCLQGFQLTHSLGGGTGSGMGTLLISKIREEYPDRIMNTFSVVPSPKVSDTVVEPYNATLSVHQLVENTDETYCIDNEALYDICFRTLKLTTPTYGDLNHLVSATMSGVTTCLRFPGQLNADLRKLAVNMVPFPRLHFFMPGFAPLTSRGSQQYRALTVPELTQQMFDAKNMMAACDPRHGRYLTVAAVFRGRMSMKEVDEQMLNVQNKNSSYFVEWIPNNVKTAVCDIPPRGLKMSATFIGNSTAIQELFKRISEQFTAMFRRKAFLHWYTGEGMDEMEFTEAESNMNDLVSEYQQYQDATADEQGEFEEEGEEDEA

Structure (SMILES)	IC50
C[C@H](CO)NS(=O)(=O)c1cc(N2CCC3(CC2)CC3)c(C(=O)Nc2ccc([N+](=O)[O-])c(N3CCO[C@H](C)C3)n2)cn1 [Compound 160]	≤ 100 nM
COc1ccc(C(=O)Nc2cnc(NS(=O)(=O)CCO)cc2N2CCC3(CC2)CC3)nc1N1CC2CC2C1 (centres unmarked) [Compound 362]	≤ 100 nM
O=C(Nc1ccc(OCF)c(N2CC(F)(F)C2)c1)c1cnc(NS(=O)(=O)CCO)cc1N1CCC2(CC1)CC2 [Compound 452]	≤ 100 nM
O=C(Nc1ccc([N+](=O)[O-])c(N2CCC3(CC3)C2)n1)c1cnc(S(=O)(=O)NCCO)cc1N1CCC2(CC1)CC2 [Compound 150]	≤ 100 nM
COc1ccc(C(=O)Nc2ccc(S(=O)(=O)NCCO)cc2N2CCC3(CC2)CC3)nc1OC1CCC1 [Compound 343]	≤ 100 nM
C[C@H](CO)NS(=O)(=O)c1ccc(C(=O)Nc2ccc([N+](=O)[O-])c(N3CCC(F)(F)CC3)c2)c(N2CCC3(CC2)CC3)c1 [Compound 30]	≤ 100 nM
COc1ccc(C(=O)Nc2cnc(S(=O)(=O)N[C@@H](C)CO)cc2N2CCC3(CC2)CC3)nc1N1CCC(F)(F)CC1 [Compound 381]	≤ 100 nM
COc1ccc(C(=O)Nc2cnc(NS(=O)(=O)CCO)cc2N2CCC3(CC2)CC3)nc1NC(C)(C)CO [Compound 363]	≤ 100 nM
COc1ccc(NC(=O)c2cnc(S(=O)(=O)NCCO)cc2N2CCC3(CC2)CC3)nc1N1CCC(F)CC1 [Compound 313]	≤ 100 nM
C[C@H](CO)S(=O)(=O)Nc1ccc(C(=O)Nc2ccc([N+](=O)[O-])c(N3CCC(F)(F)CC3)n2)c(N2CCC3(CC2)CC3)c1 [Compound 78]	≤ 100 nM
O=C(Nc1ccc([N+](=O)[O-])c(N2CCC(F)CC2)n1)c1cnc(S(=O)(=O)NCCO)cc1N1CCC2(CC1)CC2 [Compound 153]	≤ 100 nM
O=C(Nc1ccc(OCF)c(N2CC(F)(F)C2)c1)c1cnc(S(=O)(=O)NCCO)cc1N1CCC2(CC1)CC2 [Compound 468]	≤ 100 nM
C[C@@H]1CN(c2nc(NC(=O)c3cnc(S(=O)(=O)NCCO)cc3N3CCC4(CC3)CC4)ccc2[N+](=O)[O-])CCO1 [Compound 146]	≤ 100 nM
CC1(F)CCN(c2cc(C(=O)Nc3ccc(S(=O)(=O)NCCO)cc3N3CCC4(CC3)CC4)ccc2[N+](=O)[O-])C1 (centres unmarked) [Compound 56]	100 to 500 nM
O=C(Nc1ccc(S(=O)(=O)NCCO)cc1N1CCC2(CC1)CC2)c1ccc([N+](=O)[O-])c(N2CCC(F)(F)CC2)n1 [Compound 177]	100 to 500 nM
COc1ccc(C(=O)Nc2cnc(S(=O)(=O)NCCO)cc2N2CCC3(CC2)CC3)nc1N1CCC(F)CC1 [Compound 377]	≤ 100 nM
C[C@@H]1CN(c2nc(C(=O)Nc3cnc(S(=O)(=O)NCCO)cc3N3CCC4(CC3)CC4)ccc2[N+](=O)[O-])CCO1 [Compound 242]	100 to 500 nM
O=C(Nc1ccc(NS(=O)(=O)CCO)cc1N1CCC2(CC1)CC2)c1ccc(OCF)c(OC2CCC2)c1 [Compound 519]	≤ 100 nM
C[C@H](CO)NS(=O)(=O)c1cc(N2CCC3(CC2)CC3)c(C(=O)Nc2ccc(OCF)c(N3CCC(F)(F)CC3)n2)cn1 [Compound 510]	≤ 100 nM
CSc1ccc(NC(=O)c2ccc(NS(=O)(=O)CCO)cc2N2CCC3(CC2)CC3)cc1N1CC(F)(F)C1 [Compound 580]	≤ 100 nM
O=C(Nc1cnc(S(=O)(=O)NCCO)cc1N1CCC2(CC1)CC2)c1ccc([N+](=O)[O-])c(OCCC(F)(F)F)c1 [Compound 213]	100 to 500 nM

Structure (SMILES)	IC50
COc1ccc(C(=O)Nc2cnc(NS(=O)(=O)CCO)cc2N2CCC3(CC2)CC3)nc1N1CC(F)(F)C1 [Compound 356]	≤ 100 nM
COc1ccc(C(=O)Nc2cnc(S(=O)(=O)NCCO)cc2N2CCC3(CC2)CC3)nc1NC(C)(C)CO [Compound 379]	≤ 100 nM
O=C(Nc1ccc(S(=O)(=O)NCCO)cc1N1CCC2(CC1)CC2)c1ccc([N+](=O)[O-])c(N2CCC(F)(F)CC2)c1 [Compound 49]	100 to 500 nM
O=C(Nc1ccc(OCF)c(N2CCC(F)(F)CC2)c1)c1cnc(S(=O)(=O)NCCO)cc1N1CCC2(CC1)CC2 [Compound 465]	≤ 100 nM
COc1ccc(NC(=O)c2cnc(S(=O)(=O)NCCO)cc2N2CCC3(CC2)CC3)nc1N1CC2CC2C1 (centres unmarked) [Compound 314]	≤ 100 nM
C[C@@H]1CN(c2cc(C(=O)Nc3ccc(S(=O)(=O)NCCO)cc3N3CCC4(CC3)CC4)ccc2[N+](=O)[O-])CCO1 [Compound 50]	100 to 500 nM
CSc1ccc(NC(=O)c2ccc(NS(=O)(=O)CCO)cc2N2CCC3(CC2)CC3)nc1N1CCC(C)(F)C1 (centres unmarked) [Compound 600]	≤ 100 nM
CSc1ccc(NC(=O)c2ccc(NS(=O)(=O)[C@H](C)CO)cc2N2CCC3(CC2)CC3)nc1N1CCC(F)(F)CC1 [Compound 606]	≤ 100 nM
C[C@@H]1CN(c2cc(C(=O)Nc3ccc(NS(=O)(=O)CCO)cc3N3CCC4(CC3)CC4)ccc2OCF)CCO1 [Compound 514]	≤ 100 nM
COc1ccc(NC(=O)c2ccc(S(=O)(=O)NCCO)cc2N2CCC3(CC2)CC3)nc1N1CC2CC2C1 (centres unmarked) [Compound 282]	≤ 100 nM
COc1ccc(C(=O)Nc2ccc(S(=O)(=O)NCCO)cc2N2CCC3(CC2)CC3)nc1N1CC2CC2C1 (centres unmarked) [Compound 346]	≤ 100 nM
CSc1ccc(NC(=O)c2ccc(NS(=O)(=O)[C@@H](C)CO)cc2N2CCC3(CC2)CC3)cc1N1CCC(F)(F)CC1 [Compound 589]	≤ 100 nM
C[C@H]1CN(c2cc(C(=O)Nc3ccc(NS(=O)(=O)CCO)cc3N3CCC4(CC3)CC4)ccc2[N+](=O)[O-])CCO1 [Compound 35]	100 to 500 nM
C[C@@H]1CN(c2nc(NC(=O)c3ccc(NS(=O)(=O)[C@@H](C)CO)cc3N3CCC4(CC3)CC4)ccc2OCF)CCO1 [Compound 431]	≤ 100 nM
O=C(Nc1cnc(S(=O)(=O)NCCO)cc1N1CCC2(CC1)CC2)c1ccc([N+](=O)[O-])c(N2CCC(F)(F)CC2)c1 [Compound 209]	100 to 500 nM
O=C(Nc1ccc(S(=O)(=O)NCCO)cc1N1CCC2(CC1)CC2)c1ccc(OCF)c(N2CC(F)(F)C2)c1 [Compound 532]	100 to 500 nM
C[C@@H](CO)S(=O)(=O)Nc1ccc(C(=O)Nc2ccc(OCF)c(N3CCC(F)(F)CC3)n2)c(N2CCC3(CC2)CC3)c1 [Compound 429]	≤ 100 nM
O=C(Nc1ccc([N+](=O)[O-])c(N2CCOCC2)c1)c1ccc(S(=O)(=O)NCCO)cc1N1CCC2(CC1)CC2 [Compound 28]	≤ 100 nM
CC1(F)CCN(c2cc(NC(=O)c3ccc(S(=O)(=O)NCCO)cc3N3CCC4(CC3)CC4)ccc2OCF)C1 (centres unmarked) [Compound 408]	≤ 100 nM
CSc1ccc(NC(=O)c2ccc(NS(=O)(=O)CCO)cc2N2CCC3(CC2)CC3)cc1NC(C)(C)CO [Compound 587]	≤ 100 nM
CSc1ccc(NC(=O)c2ccc(NS(=O)(=O)CCO)cc2N2CCC3(CC2)CC3)cc1N1CCOCC1 [Compound 588]	≤ 100 nM

Structure (SMILES)	IC50
COc1ccc(NC(=O)c2ccc(S(=O)(=O)N[C@H](C)CO)cc2N2CCC3(CC2)CC3)nc1N1CCO[C@H](C)C1 [Compound 288]	≤ 100 nM
O=C(Nc1ccc([N+](=O)[O-])c(N2CCC(F)CC2)c1)c1ccc(S(=O)(=O)NCCO)cc1N1CCC2(CC1)CC2 [Compound 25]	≤ 100 nM
O=C(Nc1ccc([N+](=O)[O-])c(OC2CCC2)c1)c1ccc(S(=O)(=O)NCCO)cc1N1CCC2(CC1)CC2 [Compound 23]	≤ 100 nM
O=C(Nc1ccc(OCF)c(OC2CCC2)c1)c1cnc(NS(=O)(=O)CCO)cc1N1CCC2(CC1)CC2 [Compound 455]	≤ 100 nM
C[C@H]1CN(c2cc(NC(=O)c3cnc(S(=O)(=O)NCCO)cc3N3CCC4(CC3)CC4)ccc2OCF)CCO1 [Compound 467]	≤ 100 nM
O=C(Nc1ccc(OCF)c(N2CCC(F)CC2)n1)c1cnc(NS(=O)(=O)CCO)cc1N1CCC2(CC1)CC2 [Compound 489]	≤ 100 nM
CC(C)(CO)Nc1nc(NC(=O)c2ccc(NS(=O)(=O)CCO)cc2N2CCC3(CC2)CC3)ccc1OCF [Compound 427]	≤ 100 nM
O=C(Nc1ccc(NS(=O)(=O)CCO)cc1N1CCC2(CC1)CC2)c1ccc(OCF)c(N2CC(F)(F)C2)c1 [Compound 516]	≤ 100 nM
C[C@H](CO)S(=O)(=O)Nc1ccc(NC(=O)c2ccc(OCF)c(N3CCC(F)(F)CC3)c2)c(N2CCC3(CC2)CC3)c1 [Compound 526]	≤ 100 nM
O=C(Nc1ccc([N+](=O)[O-])c(N2CC3CC3C2)c1)c1ccc(S(=O)(=O)NCCO)cc1N1CCC2(CC1)CC2 (centres unmarked) [Compound 26]	≤ 100 nM
O=C(Nc1ccc([N+](=O)[O-])c(N2CCC3(CC3)C2)n1)c1cnc(NS(=O)(=O)CCO)cc1N1CCC2(CC1)CC2 [Compound 134]	≤ 100 nM
C[C@@H]1CN(c2cc(NC(=O)c3ccc(NS(=O)(=O)[C@H](C)CO)cc3N3CCC4(CC3)CC4)ccc2[N+](=O)[O-])CCO1 [Compound 16]	≤ 100 nM
C[C@H](CO)S(=O)(=O)Nc1cc(N2CCC3(CC2)CC3)c(NC(=O)c2ccc([N+](=O)[O-])c(N3CCC(F)(F)CC3)c2)cn1 [Compound 206]	≤ 100 nM
O=C(Nc1ccc(OCF)c(N2CC3CC3C2)c1)c1cnc(NS(=O)(=O)CCO)cc1N1CCC2(CC1)CC2 (centres unmarked) [Compound 458]	≤ 100 nM
COc1ccc(NC(=O)c2cnc(S(=O)(=O)N[C@@H](C)CO)cc2N2CCC3(CC2)CC3)nc1N1CCO[C@H](C)C1 [Compound 319]	≤ 100 nM
COc1ccc(NC(=O)c2ccc(S(=O)(=O)NCCO)cc2N2CCC3(CC2)CC3)nc1OCCC(F)(F)F [Compound 277]	≤ 100 nM
COc1ccc(C(=O)Nc2ccc(NS(=O)(=O)CCO)cc2N2CCC3(CC2)CC3)nc1N1CCO[C@@H](C)C1 [Compound 323]	≤ 100 nM
C[C@@H](CO)NS(=O)(=O)c1cc(N2CCC3(CC2)CC3)c(NC(=O)c2ccc([N+](=O)[O-])c(N3CCC(F)(F)CC3)c2)cn1 [Compound 221]	100 to 500 nM
O=C(Nc1ccc(OCF)c(N2CCC(F)CC2)c1)c1ccc(S(=O)(=O)NCCO)cc1N1CCC2(CC1)CC2 [Compound 409]	≤ 100 nM
CC1(F)CCN(c2cc(C(=O)Nc3ccc(NS(=O)(=O)CCO)cc3N3CCC4(CC3)CC4)ccc2[N+](=O)[O-])C1 (centres unmarked) [Compound 40]	≤ 100 nM
